Source: patent US20200361871A1 (Enterprise Therapeutics Ltd., priority 2018, published 2020)

Target: human TMEM16A (TMEM16Aabc variant) (Homo sapiens, UniProt Q5XXA6, DEL476-501, form not given)
Assay: Automated whole-cell patch clamp (Qpatch) TMEM16A potentiator assay in FRT cells stably expressing human TMEM16A
Type: cell-based
Conditions: for % Potentiation @ 3.33 μM Avg: 3.33 μM solution of test compound, percentage increase of baseline TMEM16A current; for EC50: calculated EC50, Qpatch TMEM16A current at +70 mV
Procedure, shortened: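 FRT cells stably expressing human TMEM16Aabc were recorded by automated whole-cell patch clamp, with intracellular Ca2+ buffered for ~EC20 activation, holding −70 mV and step to +70 mV at 0.05 Hz. Compound was applied cumulatively, 5 min per concentration. Peak current increase as % of baseline was fitted to give EC50 and maximum efficacy.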

Sequence of human TMEM16A (TMEM16Aabc variant) (Q5XXA6 with tags, fused parts or gaps DEL476-501): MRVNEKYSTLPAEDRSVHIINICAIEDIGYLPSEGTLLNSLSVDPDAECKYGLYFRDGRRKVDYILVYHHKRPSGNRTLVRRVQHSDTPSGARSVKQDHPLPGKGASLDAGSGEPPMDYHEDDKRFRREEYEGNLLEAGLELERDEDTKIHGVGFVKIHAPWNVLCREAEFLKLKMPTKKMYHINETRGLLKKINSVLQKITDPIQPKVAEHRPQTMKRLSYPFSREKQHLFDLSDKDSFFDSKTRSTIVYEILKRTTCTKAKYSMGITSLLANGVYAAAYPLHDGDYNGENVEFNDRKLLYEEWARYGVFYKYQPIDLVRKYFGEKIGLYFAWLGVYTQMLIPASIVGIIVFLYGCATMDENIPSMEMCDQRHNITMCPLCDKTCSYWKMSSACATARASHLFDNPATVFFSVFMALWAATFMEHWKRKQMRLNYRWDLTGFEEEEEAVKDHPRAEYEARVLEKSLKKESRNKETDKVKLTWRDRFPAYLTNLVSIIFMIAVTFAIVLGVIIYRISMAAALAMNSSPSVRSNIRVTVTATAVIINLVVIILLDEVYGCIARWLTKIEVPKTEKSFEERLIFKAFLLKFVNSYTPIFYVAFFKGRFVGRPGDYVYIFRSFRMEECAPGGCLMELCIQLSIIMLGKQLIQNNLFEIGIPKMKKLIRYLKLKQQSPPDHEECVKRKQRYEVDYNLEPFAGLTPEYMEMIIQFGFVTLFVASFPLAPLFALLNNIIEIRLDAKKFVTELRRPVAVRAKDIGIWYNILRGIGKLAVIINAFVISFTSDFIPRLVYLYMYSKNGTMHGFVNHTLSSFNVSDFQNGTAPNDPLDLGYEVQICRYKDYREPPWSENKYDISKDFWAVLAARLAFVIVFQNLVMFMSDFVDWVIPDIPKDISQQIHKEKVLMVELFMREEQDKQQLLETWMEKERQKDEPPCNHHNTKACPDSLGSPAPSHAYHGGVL

SMILES | % Potentiation @ 3.33 μM Avg | EC50
CC(C)C(C)(C#N)NC(=O)c1cc(NC(=O)Cc2cc(Cl)ccc2O)ccn1 (stereo not drawn) [Example 37, 4-[[2-(5-Chloro-2-hydroxy-phenyl)acetyl]amino]-N-(1-cyano-1,2-dimethyl-propyl)pyridine-2-carboxamide] | 352% | 120 nM
CC(C)(C)NC(=O)c1cc(NC(=O)Cc2ccc3ccccc3c2)ccn1 [Example 5.24, N-tert-Butyl-4-[[2-(2-naphthyl)acetyl]amino]pyridine-2-carboxamide] | 189% | 140 nM
O=C(Cc1cc(Cl)ccc1O)Nc1ccnc(C(=O)N[C@H]2CCC[C@@H]2O)c1 [Example 35.17, 4-[[2-(5-Chloro-2-hydroxy-phenyl)acetyl]amino]-N-[(1S,2S)-2-hydroxycyclopentyl]pyridine-2-carboxamide] | 153% | 150 nM
CC(C)(C)NC(=O)c1cc(NC(=O)Cc2ccc(C(C)(C)C)cc2O)ccn1 [Example 90, N-tert-Butyl-4-[[2-(4-tert-butyl-2-hydroxy-phenyl)acetyl]amino]pyridine-2-carboxamide] | 219% | 120 nM
CC(C)(C#N)NC(=O)c1cc(NC(=O)Cc2ccc(C(C)(C)C)c(O)c2)ccn1 [Example 93.4, 4-[[2-(4-tert-Butyl-3-hydroxy-phenyl)acetyl]amino]-N-(1-cyano-1-methyl-ethyl)pyridine-2-carboxamide] | 476% | 70 nM
COc1ccc(Cl)c(CC(=O)Nc2ccnc(C(=O)NC3(C#N)CC3)c2)c1 [Example 24, 4-[[2-(2-Chloro-5-methoxy-phenyl)acetyl]amino]-N-(1-cyanocyclopropyl)pyridine-2-carboxamide] | 68% | –
CC(C)(C)NC(=O)c1cc(NC(=O)Cc2ccc(O)c(Cl)c2)ccn1 [Example 5.21, N-tert-Butyl-4-[[2-(3-chloro-4-hydroxy-phenyl)acetyl]amino]pyridine-2-carboxamide] | 172% | 510 nM
COc1ccc(CNC(=O)c2cc(NC(=O)Cc3cc(Cl)ccc3O)ccn2)nc1 [Example 35.12, 4-[[2-(5-Chloro-2-hydroxy-phenyl)acetyl]amino]-N-[(5-methoxy-2-pyridyl)methyl]pyridine-2-carboxamide] | 158% | 420 nM
COc1cccc(O)c1CC(=O)Nc1cccc(C(=O)NC(C)(C)C)c1 [Example 2.6, N-tert-Butyl-3-[[2-(2-hydroxy-6-methoxy-phenyl)acetyl]amino] benzamide] | 140% | 2910 nM
C[C@@H](NC(=O)Nc1ccnc(C(=O)NC(C)(C)C)c1)c1ccccc1 [Example 64.3, N-tert-Butyl-4-[[(1R)-1-phenylethyl]carbamoylamino]pyridine-2-carboxamide] | 70% | –
CC(C)(C)NC(=O)c1cc(NC(=O)C2CCc3cccc(O)c32)ccn1 (stereo not drawn) [Example 3.10b, N-tert-Butyl-4-[(7-hydroxyindane-1-carbonyl)amino]pyridine-2-carboxamide] | 159% | 460 nM
C#CC1(NC(=O)c2cc(NC(=O)Cc3cc(Cl)ccc3O)ccn2)CCOCC1 [Example 31.4, 4-[[2-(5-Chloro-2-hydroxy-phenyl)acetyl]amino]-N-(4-ethynyltetrahydropyran-4-yl)pyridine-2-carboxamide] | 186% | 20 nM
Cc1cccc(CC(=O)Nc2ccnc(C(=O)NC(C)(C)C)c2)c1 [Example 5.14, N-tert-Butyl-4-[[2-(m-tolyl)acetyl]amino]pyridine-2-carboxamide] | 128% | 760 nM
CC(C)(C)NC(=O)c1cc(NC(=O)Cc2ccc(C(C)(C)C)c(N)c2)ccn1 [Example 87, 4-[[2-(3-Amino-4-tert-butyl-phenyl)acetyl]amino]-N-tert-butyl-pyridine-2-carboxamide] | 332% | 220 nM
CC(C)(C)NC(=O)c1cc(NC(=O)Cc2c(O)cccc2Cl)ccn1 [Example 3.3a, N-tert-Butyl-4-[[2-(2-chloro-6-hydroxy-phenyl)acetyl]amino]pyridine-2-carboxamide] | 91% | 70 nM
CCn1c(C(=O)Nc2ccnc(C(=O)NC(C)(C)C#N)c2)cc2ccccc21 [Example 83.18, N-[2-[(1-Cyano-1-methyl-ethyl)carbamoyl]-4-pyridyl]-1-ethyl-indole-2-carboxamide] | 16% | –
COc1ccccc1-c1cc(C(=O)Nc2ccnc(C(=O)NC(C)(C)C#N)c2)no1 [Example 83.27, N-[2-[(1-Cyano-1-methyl-ethyl)carbamoyl]-4-pyridyl]-5-(2-methoxyphenyl)isoxazole-3-carboxamide] | -11% | –
CC(C)(C)NC(=O)c1cccc(NC(=O)CCc2ccccc2O)c1 [Example 2.5, N-tert-Butyl-3-[3-(2-hydroxyphenyl)propanamido]benzamide] | 51% | 1340 nM
CC(C)(C)OC(=O)N1CCCC(NC(=O)c2cc(NC(=O)Cc3cc(Cl)ccc3O)ccn2)C1 (stereo not drawn) [Example 8.1, tert-Butyl-3-[[4-[[2-(5-chloro-2-hydroxy-phenyl)acetyl]amino]pyridine-2-carbonyl]amino]piperidine-1-carboxylate] | 155% | 590 nM
Cc1ccc(CC(=O)Nc2ccnc(C(=O)NC(C)(C)C)c2)cc1 [Example 5.11, N-tert-Butyl-4-[[2-(p-tolyl)acetyl]amino]pyridine-2-carboxamide] | 89% | 170 nM
O=C(Cc1cc(Cl)ccc1O)Nc1ccnc(C(=O)Nc2ncc[nH]2)c1 [Example 32.9, 4-[[2-(5-Chloro-2-hydroxy-phenyl)acetyl]amino]-N-(1H-imidazol-2-yl)pyridine-2-carboxamide] | 31% | –
N#CC1(NC(=O)c2cc(NC(=O)Cc3ccc4ncccc4c3)ccn2)CCC1 [Example 23.11, N-(1-Cyanocyclobutyl)-4-[[2-(6-quinolyl)acetyl]amino]pyridine-2-carboxamide] | 101% | –
CC(C)(NC(=O)c1cc(NC(=O)Cc2ccccc2Cl)ccn1)C1CC1 [Example 30.3, 4-[[2-(2-Chlorophenyl)acetyl]amino]-N-(1-cyclopropyl-1-methyl-ethyl)pyridine-2-carboxamide] | 100% | 250 nM
CC(C)(CF)NC(=O)c1cc(NC(=O)Cc2ccccc2Cl)ccn1 [Example 30.10, 4-[[2-(2-Chlorophenyl)acetyl]amino]-N-(2-fluoro-1,1-dimethyl-ethyl)pyridine-2-carboxamide] | 265% | –
CC(C)(C)NC(=O)c1cc(NC(=O)C2CCc3ccc(O)cc32)ccn1 (stereo not drawn) [Example 3.9b, N-tert-Butyl-4-[(6-hydroxyindane-1-carbonyl)amino]pyridine-2-carboxamide] | 144% | 960 nM
CC(C)(C#N)NC(=O)c1cc(NC(=O)Cc2cc(F)ccc2O)ccn1 [Example 81, N-(1-Cyano-1-methyl-ethyl)-4-[[2-(5-fluoro-2-hydroxy-phenyl)acetyl]amino] pyridine-2-carboxamide] | 151% | 370 nM
